Experimental data reported in PMC9150124, “Design of a Potent, Selective, and Brain-Penetrant Inhibitor of Wnt-Deactivating Enzyme Notum by Optimization of a Crystallographic Fragment Hit” (Journal of Medicinal Chemistry, 2022).

Experiments:
Experiment in all cases: SelectScreen kinase profiling, SSBK ZLyte SP Technology
Assay type in all cases: biochemical
[1] = target: kinase named in conditions (Homo sapiens, UniProt O00418); conditions: EEF2K, 10 μM
Description: (§1) Kinase selectivity screening was performed by Thermo Fisher Scientific (Paisley, U.K.) in their SelectScreen Biochemical Kinase Profiling Service. Assay information and data are presented in the Supporting Information.
(§2) Kinase selectivity screening was performed by ThermoFisher Scientific (Paisley, U.K.) in their SelectScreenTM
(§3) Biochemical Kinase Profiling service .

[2] = target: kinase named in conditions (Homo sapiens, UniProt O15530)
Description: as §1, §2, §3

[3] = target: kinase named in conditions (Homo sapiens, UniProt O75116); conditions: ROCK2, 10 μM
Description: as §1, §2, §3

[4] = target: kinase named in conditions (Homo sapiens, UniProt O94806); conditions: PRKCN (PKD3), 10 μM
Description: as §1, §2, §3

[5] = target: kinase named in conditions (Homo sapiens, UniProt P04049, Y340D/Y341D); conditions: RAF1 (cRAF) Y340D Y341D, 10 μM
Description: as §1, §2, §3

[6] = target: kinase named in conditions (Homo sapiens, UniProt P06239); conditions: LCK, 10 μM
Description: as §1, §2, §3

[7] = target: kinase named in conditions (Homo sapiens, UniProt P07949, A883F); conditions: RET A883F, 10 μM
Description: as §1, §2, §3

[8] = target: kinase named in conditions (Homo sapiens, UniProt P08581, Y1235D); conditions: MET (cMet) Y1235D, 10 μM
Description: as §1, §2, §3

[9] = target: kinase named in conditions (Homo sapiens, UniProt P10721, T670I); conditions: KIT T670I, 10 μM
Description: as §1, §2, §3

[10] = target: kinase named in conditions (Homo sapiens, UniProt P10721, V560G); conditions: KIT V560G, 10 μM
Description: as §1, §2, §3

[11] = target: kinase named in conditions (Homo sapiens, UniProt P11362); conditions: FGFR1, 10 μM
Description: as §1, §2, §3

[12] = target: kinase named in conditions (Homo sapiens, UniProt P15735); conditions: PHKG2, 10 μM
Description: as §1, §2, §3

[13] = target: kinase named in conditions (Homo sapiens, UniProt P21802, N549H); conditions: FGFR2 N549H, 10 μM
Description: as §1, §2, §3

[14] = target: kinase named in conditions (Homo sapiens, UniProt P22607); conditions: FGFR3, 10 μM
Description: as §1, §2, §3

[15] = target: kinase named in conditions (Homo sapiens, UniProt P22607, V555M); conditions: FGFR3 V555M, 10 μM
Description: as §1, §2, §3

[16] = target: kinase named in conditions (Homo sapiens, UniProt P32298); conditions: GRK4, 10 μM
Description: as §1, §2, §3

[17] = target: kinase named in conditions (Homo sapiens, UniProt P36888); conditions: FLT3, 10 μM
Description: as §1, §2, §3

[18] = target: kinase named in conditions (Homo sapiens, UniProt P45984); conditions: MAPK9 (JNK2), 10 μM
Description: as §1, §2, §3

[19] = target: kinase named in conditions (Homo sapiens, UniProt P49137); conditions: MAPKAPK2, 10 μM
Description: as §1, §2, §3

[20] = target: kinase named in conditions (Homo sapiens, UniProt P49674); conditions: CSNK1E (CK1 epsilon), 10 μM
Description: as §1, §2, §3

[21] = target: kinase named in conditions (Homo sapiens, UniProt P49759); conditions: CLK1, 10 μM
Description: as §1, §2, §3

[22] = target: kinase named in conditions (Homo sapiens, UniProt P53779); conditions: MAPK10 (JNK3), 10 μM
Description: as §1, §2, §3

[23] = target: kinase named in conditions (Homo sapiens, UniProt P54760); conditions: EPHB4, 10 μM
Description: as §1, §2, §3

[24] = target: kinase named in conditions (Homo sapiens, UniProt P54764); conditions: EPHA4, 10 μM
Description: as §1, §2, §3

[25] = target: kinase named in conditions (Homo sapiens, UniProt Q00535)
Description: as §1, §2, §3

[26] = target: kinase named in conditions (Homo sapiens, UniProt Q06187); conditions: BTK, 10 μM
Description: as §1, §2, §3

[27] = target: kinase named in conditions (Homo sapiens, UniProt Q07002); conditions: CDK18/cyclin Y, 10 μM
Description: as §1, §2, §3

[28] = target: kinase named in conditions (Homo sapiens, UniProt Q13188); conditions: STK3 (MST2), 10 μM
Description: as §1, §2, §3

[29] = target: kinase named in conditions (Homo sapiens, UniProt Q14680); conditions: MELK, 10 μM
Description: as §1, §2, §3

[30] = target: kinase named in conditions (Homo sapiens, UniProt Q8N568); conditions: DCAMKL2 (DCK2), 10 μM
Description: as §1, §2, §3

[31] = target: kinase named in conditions (Homo sapiens, UniProt Q96NX5); conditions: CAMK1G (CAMKI gamma), 10 μM
Description: as §1, §2, §3

[32] = target: kinase named in conditions (Homo sapiens, UniProt Q96SB4); conditions: SRPK1, 10 μM
Description: as §1, §2, §3

[33] = target: kinase named in conditions (Homo sapiens, UniProt Q9NYY3); conditions: PLK2, 10 μM
Description: as §1, §2, §3

[34] = target: kinase named in conditions (Homo sapiens, UniProt Q9Y463); conditions: DYRK1B, 10 μM
Description: as §1, §2, §3

Sequence of kinase named in conditions (Homo sapiens, UniProt Q00535) (Q00535 whole entry): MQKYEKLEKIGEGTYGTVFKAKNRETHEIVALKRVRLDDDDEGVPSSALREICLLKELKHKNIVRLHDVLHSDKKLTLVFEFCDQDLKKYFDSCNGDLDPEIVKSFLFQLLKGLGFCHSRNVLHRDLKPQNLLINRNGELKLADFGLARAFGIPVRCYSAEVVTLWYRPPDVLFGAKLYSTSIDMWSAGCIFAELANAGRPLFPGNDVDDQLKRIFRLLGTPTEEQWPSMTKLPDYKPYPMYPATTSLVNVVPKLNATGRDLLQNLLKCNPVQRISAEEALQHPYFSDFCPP
Sequence of kinase named in conditions (Homo sapiens, UniProt O15530) (O15530 whole entry): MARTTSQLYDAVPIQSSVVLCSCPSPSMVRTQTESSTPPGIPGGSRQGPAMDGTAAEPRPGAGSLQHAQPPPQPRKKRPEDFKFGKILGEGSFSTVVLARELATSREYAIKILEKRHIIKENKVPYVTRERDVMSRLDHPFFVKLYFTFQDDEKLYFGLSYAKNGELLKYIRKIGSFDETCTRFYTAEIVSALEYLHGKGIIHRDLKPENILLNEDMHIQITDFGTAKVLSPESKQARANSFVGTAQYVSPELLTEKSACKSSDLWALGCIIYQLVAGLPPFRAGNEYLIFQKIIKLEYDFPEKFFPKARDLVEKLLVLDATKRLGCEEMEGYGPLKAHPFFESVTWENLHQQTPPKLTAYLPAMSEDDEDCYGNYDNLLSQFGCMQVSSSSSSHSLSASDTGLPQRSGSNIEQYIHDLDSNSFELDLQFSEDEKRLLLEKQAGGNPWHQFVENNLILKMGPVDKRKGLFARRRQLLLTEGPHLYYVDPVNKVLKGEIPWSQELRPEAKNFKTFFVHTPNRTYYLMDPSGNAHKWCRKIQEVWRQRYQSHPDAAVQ
Sequence of kinase named in conditions (Homo sapiens, UniProt Q13188) (Q13188 whole entry): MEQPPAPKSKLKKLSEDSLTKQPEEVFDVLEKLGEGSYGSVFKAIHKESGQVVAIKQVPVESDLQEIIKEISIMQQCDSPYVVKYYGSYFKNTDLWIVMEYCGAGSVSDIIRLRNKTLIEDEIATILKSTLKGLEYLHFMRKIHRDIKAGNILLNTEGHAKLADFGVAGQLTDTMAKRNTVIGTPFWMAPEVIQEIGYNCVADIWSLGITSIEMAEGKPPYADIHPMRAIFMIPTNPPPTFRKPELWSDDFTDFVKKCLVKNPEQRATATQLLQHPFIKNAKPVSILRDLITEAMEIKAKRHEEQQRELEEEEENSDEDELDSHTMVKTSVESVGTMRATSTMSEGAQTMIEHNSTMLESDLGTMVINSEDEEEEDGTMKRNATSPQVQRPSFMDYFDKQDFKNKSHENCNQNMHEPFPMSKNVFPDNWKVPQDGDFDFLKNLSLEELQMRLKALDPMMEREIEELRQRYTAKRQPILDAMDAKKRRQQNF
Sequence of kinase named in conditions (Homo sapiens, UniProt P22607) (P22607 23-806): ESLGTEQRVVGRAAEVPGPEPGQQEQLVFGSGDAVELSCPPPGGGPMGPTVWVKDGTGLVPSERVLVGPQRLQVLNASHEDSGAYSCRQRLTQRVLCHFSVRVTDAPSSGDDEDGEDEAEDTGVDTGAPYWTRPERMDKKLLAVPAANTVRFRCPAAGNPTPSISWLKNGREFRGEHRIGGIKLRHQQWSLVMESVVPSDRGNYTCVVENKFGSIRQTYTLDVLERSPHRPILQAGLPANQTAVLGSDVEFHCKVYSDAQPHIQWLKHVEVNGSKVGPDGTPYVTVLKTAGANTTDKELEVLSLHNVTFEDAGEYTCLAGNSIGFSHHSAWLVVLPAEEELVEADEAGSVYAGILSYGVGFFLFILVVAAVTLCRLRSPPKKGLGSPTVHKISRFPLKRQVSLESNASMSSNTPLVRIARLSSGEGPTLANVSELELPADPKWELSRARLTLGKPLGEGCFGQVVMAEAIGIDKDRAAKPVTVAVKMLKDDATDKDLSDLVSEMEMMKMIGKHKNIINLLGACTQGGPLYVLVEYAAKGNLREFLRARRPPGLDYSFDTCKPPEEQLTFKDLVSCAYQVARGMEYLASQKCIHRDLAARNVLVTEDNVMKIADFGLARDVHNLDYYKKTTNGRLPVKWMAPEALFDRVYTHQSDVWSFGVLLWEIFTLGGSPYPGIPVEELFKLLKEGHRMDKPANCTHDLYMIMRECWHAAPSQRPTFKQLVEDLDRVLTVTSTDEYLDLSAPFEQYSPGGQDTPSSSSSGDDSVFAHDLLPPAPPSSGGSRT
Sequence of kinase named in conditions (Homo sapiens, UniProt P49759) (P49759 whole entry): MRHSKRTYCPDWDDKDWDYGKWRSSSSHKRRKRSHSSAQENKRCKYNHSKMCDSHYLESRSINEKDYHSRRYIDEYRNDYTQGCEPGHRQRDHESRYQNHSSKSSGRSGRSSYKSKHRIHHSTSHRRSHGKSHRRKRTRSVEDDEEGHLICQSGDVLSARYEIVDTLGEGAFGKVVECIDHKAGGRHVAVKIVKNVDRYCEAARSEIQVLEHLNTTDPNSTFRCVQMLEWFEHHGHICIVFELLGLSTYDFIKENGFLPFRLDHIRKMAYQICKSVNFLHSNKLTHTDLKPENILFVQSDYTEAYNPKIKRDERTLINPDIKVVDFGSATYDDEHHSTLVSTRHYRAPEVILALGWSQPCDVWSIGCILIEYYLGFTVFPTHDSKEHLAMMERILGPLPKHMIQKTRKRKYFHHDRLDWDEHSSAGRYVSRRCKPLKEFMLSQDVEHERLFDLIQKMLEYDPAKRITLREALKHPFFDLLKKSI
Sequence of kinase named in conditions (Homo sapiens, UniProt Q06187) (Q06187 whole entry): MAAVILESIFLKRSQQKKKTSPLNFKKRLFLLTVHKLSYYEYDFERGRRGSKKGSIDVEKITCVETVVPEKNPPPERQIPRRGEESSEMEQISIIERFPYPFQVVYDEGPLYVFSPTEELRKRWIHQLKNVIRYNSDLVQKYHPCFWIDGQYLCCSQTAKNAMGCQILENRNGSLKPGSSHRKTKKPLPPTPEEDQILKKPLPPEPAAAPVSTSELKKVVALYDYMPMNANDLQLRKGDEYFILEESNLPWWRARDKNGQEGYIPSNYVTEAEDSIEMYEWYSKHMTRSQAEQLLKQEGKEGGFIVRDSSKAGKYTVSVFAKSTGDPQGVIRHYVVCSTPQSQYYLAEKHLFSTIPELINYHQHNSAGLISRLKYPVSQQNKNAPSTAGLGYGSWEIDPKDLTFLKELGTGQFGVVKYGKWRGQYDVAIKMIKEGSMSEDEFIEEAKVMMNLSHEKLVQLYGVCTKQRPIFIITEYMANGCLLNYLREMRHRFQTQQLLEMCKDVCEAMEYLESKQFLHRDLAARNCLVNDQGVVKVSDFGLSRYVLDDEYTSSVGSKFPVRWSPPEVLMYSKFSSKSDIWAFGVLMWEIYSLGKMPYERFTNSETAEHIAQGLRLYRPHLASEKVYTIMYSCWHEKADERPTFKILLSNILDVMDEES
Sequence of kinase named in conditions (Homo sapiens, UniProt Q9NYY3) (Q9NYY3 whole entry): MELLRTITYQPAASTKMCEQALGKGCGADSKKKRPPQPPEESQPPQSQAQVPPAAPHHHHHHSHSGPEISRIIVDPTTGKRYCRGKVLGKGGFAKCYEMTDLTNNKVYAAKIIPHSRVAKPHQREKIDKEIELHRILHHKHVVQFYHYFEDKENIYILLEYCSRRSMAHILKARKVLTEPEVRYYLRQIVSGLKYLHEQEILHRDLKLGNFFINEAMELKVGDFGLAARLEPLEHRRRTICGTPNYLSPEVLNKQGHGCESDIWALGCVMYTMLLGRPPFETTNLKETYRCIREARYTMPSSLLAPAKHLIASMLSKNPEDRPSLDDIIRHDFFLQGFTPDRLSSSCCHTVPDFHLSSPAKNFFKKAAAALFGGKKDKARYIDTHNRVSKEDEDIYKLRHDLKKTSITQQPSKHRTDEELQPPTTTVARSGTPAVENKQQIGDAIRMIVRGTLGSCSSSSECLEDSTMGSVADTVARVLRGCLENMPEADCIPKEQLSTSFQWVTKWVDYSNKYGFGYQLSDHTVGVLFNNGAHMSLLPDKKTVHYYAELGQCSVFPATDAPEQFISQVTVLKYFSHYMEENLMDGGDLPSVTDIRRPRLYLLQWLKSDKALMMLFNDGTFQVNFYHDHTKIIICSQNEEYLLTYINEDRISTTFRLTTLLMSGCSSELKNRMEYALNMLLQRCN
Sequence of kinase named in conditions (Homo sapiens, UniProt P45984) (P45984 whole entry): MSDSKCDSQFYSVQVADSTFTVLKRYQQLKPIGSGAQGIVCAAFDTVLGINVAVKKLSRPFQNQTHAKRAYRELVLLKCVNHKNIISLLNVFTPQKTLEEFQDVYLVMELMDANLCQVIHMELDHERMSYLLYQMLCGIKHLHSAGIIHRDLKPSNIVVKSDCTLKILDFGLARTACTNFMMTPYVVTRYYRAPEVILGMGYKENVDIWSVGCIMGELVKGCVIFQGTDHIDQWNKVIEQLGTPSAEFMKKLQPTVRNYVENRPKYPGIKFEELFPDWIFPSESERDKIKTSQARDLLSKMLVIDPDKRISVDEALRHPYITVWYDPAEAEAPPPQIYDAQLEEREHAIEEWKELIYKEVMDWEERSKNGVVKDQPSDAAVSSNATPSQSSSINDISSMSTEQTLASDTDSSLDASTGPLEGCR
Sequence of kinase named in conditions (Homo sapiens, UniProt Q96NX5) (Q96NX5 whole entry): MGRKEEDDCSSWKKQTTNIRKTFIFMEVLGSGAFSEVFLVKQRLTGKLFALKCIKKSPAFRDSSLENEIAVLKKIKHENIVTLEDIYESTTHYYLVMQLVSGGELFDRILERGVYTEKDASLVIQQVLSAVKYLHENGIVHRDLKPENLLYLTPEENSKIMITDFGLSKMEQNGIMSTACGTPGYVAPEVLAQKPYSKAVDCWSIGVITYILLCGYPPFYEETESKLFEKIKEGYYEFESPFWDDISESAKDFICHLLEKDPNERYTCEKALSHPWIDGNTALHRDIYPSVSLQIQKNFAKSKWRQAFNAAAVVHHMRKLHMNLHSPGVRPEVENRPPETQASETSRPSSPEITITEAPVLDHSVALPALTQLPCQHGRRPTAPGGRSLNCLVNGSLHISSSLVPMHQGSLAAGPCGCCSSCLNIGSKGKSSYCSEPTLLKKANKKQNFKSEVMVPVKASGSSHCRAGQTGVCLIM
Sequence of kinase named in conditions (Homo sapiens, UniProt P22607, V555M) (P22607 23-806 V555M): as the sequence (P22607 23-806) above, with V533M counted along it

With `FC(F)(F)c1c(Cl)ccc(-n2ccnn2)c1Cl` [8l, 1-(2,4-Dichloro-3-(trifluoromethyl)phenyl)-1H-1,2,3-triazole] the inhibition at 10 µM [1] was 3%, the inhibition at 10 µM ([2]; PDK1, 10 μM) was 4% and the inhibition at 10 µM ([2]; PDK1 Direct, 10 μM) was -2%. For the same molecule, the inhibition at 10 µM [3] was 16%, the inhibition at 10 µM [4] was 6% and the inhibition at 10 µM [5] was 10%. For the same molecule, the inhibition at 10 µM [6] was 33%, the inhibition at 10 µM [7] was 10% and the inhibition at 10 µM [8] was 0%. It also gave an inhibition at 10 µM [9] of 10%, an inhibition at 10 µM [10] of 3% and an inhibition at 10 µM [11] of -3%. For the same molecule, the inhibition at 10 µM [12] was 8%, the inhibition at 10 µM [13] was 17% and the inhibition at 10 µM [14] was 12%. The inhibition at 10 µM [15] was -14%, the inhibition at 10 µM [16] was -3% and the inhibition at 10 µM [17] was 15%. The inhibition at 10 µM [18] was -17%, the inhibition at 10 µM [19] was 1% and the inhibition at 10 µM [20] was 1%. The inhibition at 10 µM [21] was 0%, the inhibition at 10 µM [22] was -1% and the inhibition at 10 µM [23] was 1%. For the same molecule, the inhibition at 10 µM [24] was 1%, the inhibition at 10 µM ([25]; CDK5/p25, 10 μM) was 1% and the inhibition at 10 µM ([25]; CDK5/p35, 10 μM) was 7%. The inhibition at 10 µM [26] was 21%, the inhibition at 10 µM [27] was 4% and the inhibition at 10 µM [28] was -9%. The inhibition at 10 µM [29] was 12%, the inhibition at 10 µM [30] was 1% and the inhibition at 10 µM [31] was 2%. For the same molecule, the inhibition at 10 µM [32] was 2%, the inhibition at 10 µM [33] was 15% and the inhibition at 10 µM [34] was 16%.
